Source: patent US10842779B2, “Heterocyclic compounds and their use in preventing or treating bacterial infections” (priority 2015, dated 2020)
Like-named read-outs stand apart in the source and are kept apart here.

How the values were obtained:
Experiment in all cases: MIC of compounds alone, broth microdilution
Type in all cases: cell-based
E. coli = details: Escherichia coli
Procedure: (§1) Method 2: MIC of Compounds and Synergy with Ceftazidime Against Bacterial Isolates (Table 2 and 3)
(§2) Compounds of the present invention were assessed against genotyped bacterial strains alone or in combination with the β-lactam ceftazidime. In the assays, MICs of said compounds, or of ceftazidime at fixed concentrations of said compounds were determined by the broth microdilution method according to the Clinical Laboratory Standards Institute (CLSI—M7-A7). Briefly, compounds alone according to the invention were prepared in DMSO and spotted (2 μL each) on sterile polystyrene plates (Corning, 3788). Compounds and ceftazidime dilutions were prepared in DMSO and spotted (1 μL each) on sterile polystyrene plates (Corning, 3788). Log phase bacterial suspensions were adjusted to a final density of 5×10^5 cfu/mL in cation-adjusted Mueller-Hinton broth (Beckton-Dickinson) and added to each well (98 μL). Microplates were incubated for 16-20 h at 35° C. in ambient air. The MIC of the compounds was defined as the lowest concentration of said compounds that prevented bacterial growth as read by visual inspection. The MIC of ceftazidime at each compound concentration was defined as the lowest concentration of ceftazidime that prevented bacterial growth as read by visual inspection.

E. aerogenes = details: Klebsiella aerogenes
Procedure: as §1, §2

C. freundii = details: Citrobacter freundii
Procedure: as §1, §2

E. cloacae = details: Enterobacter cloacae
Procedure: as §1, §2

S. marcescens = details: Serratia marcescens, SMA UFR30, beta-lactamases OXA-405
Procedure: as §1, §2

K. oxytoca = details: Klebsiella oxytoca
Procedure: as §1, §2

P. mirabilis = details: Proteus mirabilis, PMI UFR82, beta-lactamases CMY-2
Procedure: as §1, §2

P. aeruginosa = details: Pseudomonas aeruginosa
Procedure: as §1, §2

C. murliniae = system: C. murliniae
Procedure: as §1, §2

M. morganii = details: Morganella morganii, MMO 200321, beta-lactamases TEM-1, CTX-M-15 OXA-1
Procedure: as §1, §2

K. pneumoniae = details: Klebsiella pneumoniae
Procedure: as §1, §2

## CC(C)(O/N=C(\C(=O)N[C@@H]1C(=O)N2C(C(=O)[O-])=C(C[n+]3ccccc3)CS[C@H]12)c1csc(N)n1)C(=O)O [CAZ, ceftazidime, reference compound]
E. coli; ECO 180070, beta-lactamases TEM-1, CTX-M-15, read-out: MIC
  MIC: 64 µg/mL
E. coli; ECO 190314, beta-lactamases CTX-M-1, read-out: MIC
  MIC: 8 µg/mL
E. coli; ECO 190317, beta-lactamases TEM-1, SHV-12, CTX-M-15 OXA-1
  MIC: 128 µg/mL
E. coli; ECO 190457, beta-lactamases CTX-M-15 OXA-1, read-out: MIC
  MIC: 16 µg/mL
E. coli; ECO 190549, beta-lactamases CTX-M-1, read-out: MIC
  MIC: 8 µg/mL
E. coli; ECO 200159, beta-lactamases TEM-1, CTX-M-14, read-out: MIC
  MIC: 2 µg/mL
E. coli; ECO 200259, beta-lactamases CTX-M-14, read-out: MIC
  MIC: 4 µg/mL
E. coli; ECO 200344, beta-lactamases CTX-M-1, read-out: MIC
  MIC: 16 µg/mL
E. coli; ECO 260096, beta-lactamases CTX-M-132
  MIC: 128 µg/mL
E. coli; ECO 260304, beta-lactamases CTX-M-15, read-out: MIC
  MIC: 16 µg/mL
E. coli; ECO 260508, beta-lactamases TEM-1, CTX-M-15 OXA-1
  MIC: 128 µg/mL
E. coli; ECO UFR16, beta-lactamases TEM-1, CTX-M-15 OXA-1 OXA-48, read-out: MIC
  MIC: 64 µg/mL
E. coli; ECO UFR17, beta-lactamases TEM-1, CTX-M-15 CMY-2 OXA-1 OXA-181
  MIC: > 128 µg/mL
E. coli; ECO UFR18, beta-lactamases CTX-M-15 OXA-204
  MIC: > 128 µg/mL
E. coli; ECO UFR19, beta-lactamases CTX-M-15 CMY-2 OXA-1 OXA-204
  MIC: 128 µg/mL
E. coli; ECO UFR32, beta-lactamases TEM-1, VEB-1 OXA-10
  MIC: > 128 µg/mL
E. coli; ECO UFR39, beta-lactamases CTX-M-15 NDM-1
  MIC: > 128 µg/mL
E. coli; ECO UFR41, beta-lactamases TEM-1, CTX-M-15 CMY-2 OXA-1 NDM-4
  MIC: > 128 µg/mL
E. coli; ECO UFR45, beta-lactamases TEM-1 CMY-4 OXA-1 OXA-48 VIM-1, read-out: MIC
  MIC: 2 µg/mL
E. coli; ECO UFR52, beta-lactamases TEM-1, SHV-12 IMP-8
  MIC: > 128 µg/mL
E. coli; ECO UFR61O, beta-lactamases TEM-1 KPC-2
  MIC: 128 µg/mL
E. coli; ECO UFR62, beta-lactamases TEM-1, CTX-M-9 KPC-2, read-out: MIC
  MIC: 16 µg/mL
E. coli; ECO UFR74, beta-lactamases SHV-1 DHA-1
  MIC: 128 µg/mL
E. aerogenes
  MIC: 128 µg/mL
C. freundii
  MIC: > 128 µg/mL
C. freundii; alone, CFR UFR10, beta-lactamases OXA-48, read-out: MIC
  MIC: 64 µg/mL
C. freundii; alone, CFR UFR11, beta-lactamases TEM-1 OXA-1 OXA-48, read-out: MIC
  MIC: 8 µg/mL
E. cloacae; ECL 2185D, beta-lactamases OXA-163
  MIC: 128 µg/mL
E. cloacae; ECL 190310, beta-lactamases AmpC
  MIC: > 128 µg/mL
E. cloacae; ECL 190408, beta-lactamases TEM-1, CTX-M-15 OXA-1
  MIC: 128 µg/mL
E. cloacae; ECL 200138, beta-lactamases AmpC
  MIC: > 128 µg/mL
E. cloacae; ECL 200322, beta-lactamases TEM-1, CTX-M-15 OXA-1
  MIC: > 128 µg/mL
E. cloacae; ECL 260033, beta-lactamases AmpC
  MIC: > 128 µg/mL
E. cloacae; ECL 260253, beta-lactamases TEM-1 KPC-3
  MIC: > 128 µg/mL
E. cloacae; ECL 260323, beta-lactamases AmpC
  MIC: > 128 µg/mL
E. cloacae; ECL 260508, beta-lactamases TEM-1, CTX-M-15, read-out: MIC
  MIC: 64 µg/mL
E. cloacae; ECL HAN, beta-lactamases OXA-35
  MIC: > 128 µg/mL
E. cloacae; ECL NEM146383, beta-lactamases AmpC
  MIC: > 128 µg/mL
E. cloacae; ECL P99, beta-lactamases AmpC
  MIC: 128 µg/mL
E. cloacae; ECL UFR12, beta-lactamases CTX-M-9 OXA-48, read-out: MIC
  MIC: 2 µg/mL
E. cloacae; ECL UFR13, beta-lactamases TEM-1, SHV-12, CTX-M-9 OXA-48
  MIC: > 128 µg/mL
E. cloacae; ECL UFR14, beta-lactamases TEM-1, SHV-12, CTX-M-15 DHA-1 OXA-1 OXA-48
  MIC: > 128 µg/mL
E. cloacae; ECL UFR38, beta-lactamases CTX-M-15 NDM-1
  MIC: > 128 µg/mL
E. cloacae; ECL UFR51, beta-lactamases SHV-12 IMP-8
  MIC: > 128 µg/mL
E. cloacae; ECL UFR60, beta-lactamases TEM-1, CTX-M-15 KPC-2
  MIC: > 128 µg/mL
E. cloacae; ECL UFR70, beta-lactamases TEM-1, CTX-M-15 CMY-2 OXA-1
  MIC: > 128 µg/mL
E. cloacae; ECL UFR84, beta-lactamases TEM-1 AmpC OXA-1
  MIC: > 128 µg/mL
E. cloacae; ECL UFR85, beta-lactamases TEM-1, CTX-M-15 AmpC
  MIC: > 128 µg/mL
S. marcescens
  MIC: 16 µg/mL
K. oxytoca
  MIC: 128 µg/mL
P. mirabilis
  MIC: 4 µg/mL
P. aeruginosa
  MIC: 128 µg/mL
P. aeruginosa; CIP107051
  MIC: 256 µg/mL
C. murliniae
  MIC: > 128 µg/mL
M. morganii
  MIC: 16 µg/mL
K. pneumoniae; BAA1898, alone, KPN BAA-1898, beta-lactamases TEM-1, SHV-11, SHV-12 KPC-2
  MIC: 256 µg/mL
K. pneumoniae; alone, KPN 6299, beta-lactamases TEM-1, SHV-11 OXA-163
  MIC: 256 µg/mL
K. pneumoniae; alone, KPN 110376, beta-lactamases TEM-1, SHV-1, CTX-M-15 OXA-1 OXA-48
  MIC: 128 µg/mL
K. pneumoniae; alone, KPN 131119, beta-lactamases TEM-1, SHV-11, CTX-M-15 OXA-1 OXA-48
  MIC: > 128 µg/mL
K. pneumoniae; alone, KPN 160143, beta-lactamases TEM-1, SHV-1, CTX-M-15 KPC-2 OXA-1
  MIC: 128 µg/mL
K. pneumoniae; alone, KPN 190128, beta-lactamases TEM-1, SHV-32, CTX-M-15 OXA-1
  MIC: > 128 µg/mL
K. pneumoniae; alone, KPN 190270, beta-lactamases TEM-1, SHV-76, CTX-M-15 OXA-1
  MIC: > 128 µg/mL
K. pneumoniae; alone, KPN 190425, beta-lactamases TEM-1, SHV-1, CTX-M-15 OXA-1
  MIC: > 128 µg/mL
K. pneumoniae; alone, KPN 190551, beta-lactamases TEM-1, SHV-1, CTX-M-15 OXA-1, read-out: MIC
  MIC: 64 µg/mL
K. pneumoniae; alone, KPN 200047, beta-lactamases TEM-1, SHV-32, CTX-M-15 OXA-1
  MIC: 128 µg/mL
K. pneumoniae; alone, KPN 200327, beta-lactamases TEM-1, SHV-1, CTX-M-15 OXA-1, read-out: MIC
  MIC: 32 µg/mL
K. pneumoniae; alone, KPN 260251, beta-lactamases TEM-1, SHV-11, SHV-12, CTX-M-15 KPC-2
  MIC: > 128 µg/mL
K. pneumoniae; alone, KPN 260252, beta-lactamases TEM-1, SHV-11 KPC-3
  MIC: > 128 µg/mL
K. pneumoniae; alone, KPN 260376, beta-lactamases SHV-1, SHV-49 OXA-1
  MIC: 128 µg/mL
K. pneumoniae; alone, KPN 270077, beta-lactamases TEM-1, SHV-1, CTX-M-15
  MIC: 128 µg/mL
K. pneumoniae; alone, KPN 700603, beta-lactamases SHV-18 OXA-2, read-out: MIC
  MIC: 64 µg/mL
K. pneumoniae; alone, KPN 6122012, beta-lactamases SHV-1 NDM-1
  MIC: > 128 µg/mL
K. pneumoniae; alone, KPN ARA, beta-lactamases TEM-1, SHV-11, CTX-M-15 OXA-1 OXA-48
  MIC: > 128 µg/mL
K. pneumoniae; alone, KPN LIB, beta-lactamases SHV-11 OXA-48, read-out: MIC
  MIC: 0.25 µg/mL
K. pneumoniae; alone, KPN UFR22_O, beta-lactamases TEM-1, SHV-1 OXA-48, read-out: MIC
  MIC: 2 µg/mL
K. pneumoniae; alone, KPN UFR24, beta-lactamases TEM-1, SHV-2, SHV-11 OXA-1 OXA-48 OXA-47
  MIC: > 128 µg/mL
K. pneumoniae; alone, KPN UFR25, beta-lactamases TEM-1, SHV-11, CTX-M-15 OXA-162
  MIC: 128 µg/mL
K. pneumoniae; alone, KPN UFR27, beta-lactamases TEM-1, SHV-28, CTX-M-15 OXA-204
  MIC: > 128 µg/mL
K. pneumoniae; alone, KPN UFR28, beta-lactamases TEM-1, SHV-1, CTX-M-15 OXA-1 OXA-232
  MIC: 128 µg/mL
K. pneumoniae; alone, KPN UFR42, beta-lactamases SHV-2, CTX-M-15 OXA-1 OXA-181 NDM-1
  MIC: > 128 µg/mL
K. pneumoniae; alone, KPN UFR43, beta-lactamases SHV-11, CTX-M-15 CMY-2 OXA-1 NDM-1
  MIC: > 128 µg/mL
K. pneumoniae; alone, KPN UFR53, beta-lactamases TEM-1 IMP-1
  MIC: > 128 µg/mL
K. pneumoniae; alone, KPN UFR65, beta-lactamases TEM-1, SHV-11 KPC-2
  MIC: 128 µg/mL
K. pneumoniae; alone, KPN UFR66, beta-lactamases TEM-1, SHV-11, CTX-M-15 KPC-2
  MIC: > 128 µg/mL
K. pneumoniae; alone, KPN UFR68, beta-lactamases TEM-1, SHV-11, CTX-M-15 KPC-3
  MIC: > 128 µg/mL
K. pneumoniae; alone, KPN UFR77, beta-lactamases CMY-2, read-out: MIC
  MIC: 64 µg/mL
K. pneumoniae; alone, KPN UFR79, beta-lactamases DHA-1 OXA-1, read-out: MIC
  MIC: 32 µg/mL
K. pneumoniae; alone, KPN UFR80, beta-lactamases SHV-11 DHA-1 OXA-1, read-out: MIC
  MIC: 0.5 µg/mL
K. pneumoniae; alone, KPN UFR81, beta-lactamases TEM-1, SHV-1 DHA-1 OXA-48
  MIC: 128 µg/mL
